Data as given in US10793553B2, “TLR7/8 antagonists and uses thereof” (Merck Patent GmbH, priority 2017, dated 2020).
Where a name gives a salt, the structure may show the parent alone.

Key:
TLR7 = target: T1, TLR7 (Homo sapiens, UniProt Q9NYK1); test: HEK TLR7 Cell Assay; assay type: cell-based; conditions: TLR7/NFKb HEK cells, R848 agonist 10 uM final, Steady-Glo readout
T1 construct: expressed in transfected cells; host or cells: HEK cells carrying TLR7 and an NFkB luciferase reporter
T1 sequence (Q9NYK1 27-1049): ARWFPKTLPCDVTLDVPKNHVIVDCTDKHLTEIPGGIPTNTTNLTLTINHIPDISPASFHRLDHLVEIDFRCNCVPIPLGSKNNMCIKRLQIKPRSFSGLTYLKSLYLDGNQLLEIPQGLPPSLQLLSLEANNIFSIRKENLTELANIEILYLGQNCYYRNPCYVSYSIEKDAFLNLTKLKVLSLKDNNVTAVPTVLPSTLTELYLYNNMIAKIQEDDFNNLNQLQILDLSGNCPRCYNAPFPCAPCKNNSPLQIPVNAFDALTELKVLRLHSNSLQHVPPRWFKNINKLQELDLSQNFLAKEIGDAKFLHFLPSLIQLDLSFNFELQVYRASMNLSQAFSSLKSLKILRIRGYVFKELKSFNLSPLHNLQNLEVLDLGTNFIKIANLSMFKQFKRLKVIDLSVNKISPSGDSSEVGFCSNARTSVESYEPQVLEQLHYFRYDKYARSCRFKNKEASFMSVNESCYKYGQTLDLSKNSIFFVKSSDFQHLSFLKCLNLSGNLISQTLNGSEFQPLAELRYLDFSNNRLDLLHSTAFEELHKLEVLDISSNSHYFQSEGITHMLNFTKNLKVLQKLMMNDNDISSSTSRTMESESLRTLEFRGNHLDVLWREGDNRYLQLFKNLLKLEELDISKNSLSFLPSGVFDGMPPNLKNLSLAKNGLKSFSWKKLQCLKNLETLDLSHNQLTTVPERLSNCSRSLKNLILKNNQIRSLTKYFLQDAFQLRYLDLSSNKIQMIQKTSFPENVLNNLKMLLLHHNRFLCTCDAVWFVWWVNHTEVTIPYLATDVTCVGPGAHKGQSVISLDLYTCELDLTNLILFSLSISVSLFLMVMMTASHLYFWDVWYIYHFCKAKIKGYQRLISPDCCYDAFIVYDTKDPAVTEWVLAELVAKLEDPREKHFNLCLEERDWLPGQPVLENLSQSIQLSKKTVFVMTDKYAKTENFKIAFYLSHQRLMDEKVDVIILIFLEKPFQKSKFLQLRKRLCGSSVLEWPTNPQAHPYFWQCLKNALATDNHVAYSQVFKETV
Method: Example 24: HEK TLR7 Cell Assay
(§1) Into 384 CulturePlates (Corning 3707) was placed 5000 c/w of TLR7/NFKb HEK cells in 30 uL DMEM without Phenol red (gibco #31053) and 10% FCS-HI, 2 mM L-Glutamine, 1% Pen/Strept. The cells are incubated for 24 h at 37 degrees Celsius, and 10% carbon dioxide. Dispense 3 uL of controls, standards, and compounds to wells, incubate for 30 min then add 3 uL of R848 (10 uM final concentration) agonist in 20 mM Hepes. Incubate for 5 hours and then allow to stand at room temperature for 15 min. Add 10 uL of Steady-Glo substrate reagent and shake assay plate for 5 min at 1500 rpm. Let the assay plate sit for 30 min at room temperature and then read plate on EnVision.

TLR8 = target: T2, TLR8 (Homo sapiens, UniProt Q9NR97); test: HEK TLR8 Cell Assay; assay type: cell-based; conditions: TLR8/NFKb HEK cells, R848 agonist 30 uM final, Steady-Glo readout
T2 construct: expressed in transfected cells; host or cells: HEK cells carrying TLR8 and an NFkB luciferase reporter
T2 sequence (Q9NR97 27-1041): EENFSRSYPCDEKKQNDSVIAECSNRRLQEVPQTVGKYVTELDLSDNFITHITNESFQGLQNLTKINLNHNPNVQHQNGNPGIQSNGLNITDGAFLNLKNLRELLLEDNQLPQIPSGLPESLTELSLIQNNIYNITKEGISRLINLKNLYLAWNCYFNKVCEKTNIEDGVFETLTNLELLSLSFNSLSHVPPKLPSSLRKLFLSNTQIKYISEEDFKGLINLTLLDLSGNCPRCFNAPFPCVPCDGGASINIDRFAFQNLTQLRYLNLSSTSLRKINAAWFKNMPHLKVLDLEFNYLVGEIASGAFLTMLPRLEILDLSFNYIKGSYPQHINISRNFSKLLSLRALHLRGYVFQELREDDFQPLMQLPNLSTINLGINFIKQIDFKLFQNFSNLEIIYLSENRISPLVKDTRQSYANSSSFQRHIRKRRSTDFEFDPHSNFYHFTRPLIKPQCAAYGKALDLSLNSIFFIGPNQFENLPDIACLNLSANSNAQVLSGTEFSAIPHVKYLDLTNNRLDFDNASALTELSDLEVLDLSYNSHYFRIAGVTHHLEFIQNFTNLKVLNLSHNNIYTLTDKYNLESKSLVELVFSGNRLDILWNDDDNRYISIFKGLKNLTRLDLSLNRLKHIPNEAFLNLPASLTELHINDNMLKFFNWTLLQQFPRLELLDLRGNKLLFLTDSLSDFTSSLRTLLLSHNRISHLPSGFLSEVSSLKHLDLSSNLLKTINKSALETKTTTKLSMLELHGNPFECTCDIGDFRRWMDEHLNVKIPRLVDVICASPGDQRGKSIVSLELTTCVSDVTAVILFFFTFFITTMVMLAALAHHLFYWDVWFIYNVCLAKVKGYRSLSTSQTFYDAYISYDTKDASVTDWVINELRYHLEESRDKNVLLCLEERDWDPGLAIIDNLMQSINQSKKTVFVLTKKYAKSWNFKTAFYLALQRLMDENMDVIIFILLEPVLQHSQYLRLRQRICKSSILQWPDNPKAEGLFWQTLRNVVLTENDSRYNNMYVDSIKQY
Method: Example 25: HEK TLR8 Cell Assay
as §1, with “TLR8/NFKb” for “TLR7/NFKb”, “(30” for “(10”

Cc1ccc(N2C[C@@H](C)[C@@H](NC(=O)CC3CCCN(C)C3)C2)c2cccnc12 (single isomer, unassigned) [Compound 36]
IC50 (TLR7): < 1000 nM | IC50 (TLR8): 1000 to 10000 nM

C[C@@H]1CN(c2ccc(C(F)(F)F)c3ncccc23)C[C@@H]1NC(=O)CC1CCN(C)C1 (single isomer, unassigned) [Compound 22]
IC50 (TLR7): < 1000 nM | IC50 (TLR8): < 1000 nM

C[C@@H]1CN(c2ccc(C#N)c3nccnc23)C[C@@H]1NC(=O)CC1CCCN(C)C1 (single isomer, unassigned) [Compound 4]
IC50 (TLR7): < 1000 nM | IC50 (TLR8): < 1000 nM

Cc1ccc(N2C[C@@H](C)[C@@H](NC(=O)CC3CCN(C)CC3(F)F)C2)c2cccnc12 (single isomer, unassigned) [Compound 43]
IC50 (TLR7): 1000 to 10000 nM | IC50 (TLR8): > 10000 nM

CC(C)[C@H](O)C(=O)N[C@H]1CN(c2ccc(C(F)(F)F)c3ncccc23)C[C@H]1C [Compound 31, (2S)-2-hydroxy-3-methyl-N-[(3R,4R)-4-methyl-1-[8-(trifluoromethyl)quinolin-5-yl]pyrrolidin-3-yl]butanamide]
IC50 (TLR7): 1000 to 10000 nM | IC50 (TLR8): > 10000 nM

CC1CN(c2ccc(C#N)c3nccnc23)CC1N (stereo not drawn) [Compound 56, 8-(3-Amino-4-methyl-pyrrolidin-1-yl)-quinoxaline-5-carbonitrile hydrochloride]
IC50 (TLR7): < 1000 nM | IC50 (TLR8): < 1000 nM

C[C@@H]1CN(c2ccc(C(F)(F)F)c3ncccc23)C[C@@H]1NC(=O)CC1CCN(C)CC1(F)F (single isomer, unassigned) [Compound 28]
IC50 (TLR7): 1000 to 10000 nM | IC50 (TLR8): 1000 to 10000 nM

C[C@@H]1CN(c2ccc(C#N)c3nccnc23)C[C@@H]1NC(=O)CC1CCN(C)CC1(F)F (single isomer, unassigned) [Compound 12]
IC50 (TLR7): < 1000 nM | IC50 (TLR8): < 1000 nM

C[C@@H]1CN(c2ccc(C#N)c3nccnc23)C[C@@H]1NC(=O)CC1CCN(C)C1 (single isomer, unassigned) [Compound 5]
IC50 (TLR7): < 1000 nM | IC50 (TLR8): < 1000 nM

NC1CN(c2ccc(C(F)(F)F)c3ncccc23)CC1F (single isomer, unassigned) [Compound 50]
IC50 (TLR7): > 10000 nM | IC50 (TLR8): > 10000 nM

Cc1cc2c(N3CCC(CNCCN4CCCCC4)C3)ccnc2n1C (stereo not drawn) [Compound 55, [1-(1,2-Dimethyl-1H-pyrrolo[2,3-b]pyridin-4-yl)-pyrrolidin-3-ylmethyl]-(2-piperidin-1-yl-ethyl)-amine]
IC50 (TLR7): 1000 to 10000 nM | IC50 (TLR8): > 10000 nM

Cc1ccc(N2C[C@@H](C)[C@@H](N)C2)c2cccnc12 [Compound 33, (3R,4R)-4-methyl-1-(8-methylquinolin-5-yl)pyrrolidin-3-amine]
IC50 (TLR7): > 10000 nM | IC50 (TLR8): > 10000 nM

C[C@@H]1CN(c2ccc(C(F)(F)F)c3ncccc23)C[C@@H]1NC(=O)C(O)C1CC1 (single isomer, unassigned) [Compound 29]
IC50 (TLR7): 1000 to 10000 nM | IC50 (TLR8): > 10000 nM

Cc1ccc(N2C[C@@H](C)[C@@H](NC(=O)CC3(C)CCN(C)CC3)C2)c2cccnc12 [Compound 40, 2-(1,4-dimethylpiperidin-4-yl)-N-[(3R,4R)-4-methyl-1-(8-methylquinolin-5-yl)pyrrolidin-3-yl]acetamide]
IC50 (TLR7): < 1000 nM | IC50 (TLR8): 1000 to 10000 nM

CC(C)[C@H](O)C(=O)N[C@H]1CN(c2ccc(C#N)c3nccnc23)C[C@H]1C [Compound 15, (2S)—N-[(3R,4R)-1-(8-cyanoquinoxalin-5-yl)-4-methylpyrrolidin-3-yl]-2-hydroxy-3-methylbutanamide]
IC50 (TLR7): 1000 to 10000 nM | IC50 (TLR8): 1000 to 10000 nM

C[C@@H]1CN(c2ccc(C#N)c3nccnc23)C[C@@H]1NC(=O)C(O)C1CC1 (single isomer, unassigned) [Compound 13]
IC50 (TLR7): 1000 to 10000 nM | IC50 (TLR8): > 10000 nM

C[C@@H]1CN(c2ccc(C(F)(F)F)c3ncccc23)C[C@@H]1N [Compound 17, (3R,4R)-4-methyl-1-[8-(trifluoromethyl)quinolin-5-yl]pyrrolidin-3-amine]
IC50 (TLR7): 1000 to 10000 nM | IC50 (TLR8): > 10000 nM

C[C@@H]1CN(c2ccc(C#N)c3nccnc23)C[C@@H]1NC(=O)CC1CCN(C)CC1(F)F (single isomer, unassigned) [Compound 11]
IC50 (TLR7): < 1000 nM | IC50 (TLR8): < 1000 nM
